Measurements reported in US20040077674A1, “Mappicine analogs, intermediates in the synthesis of mappicine analogs and methods of synthesis of mappicine analogs” (priority 2002, published 2004).

What was measured:
[1] = biological target: T1, RNA-dependent DNA polymerase activity of HIV reverse transcriptase (Human immunodeficiency virus type 1 group M subtype B, UniProt P03366); experiment: RNA-dependent DNA polymerase activity assay of HIV reverse transcriptase; assay type: biochemical, HIV-1; details: 10 μM inhibitor concentration, activity in presence / in absence of analog x 100
T1 construct: made in house
Outline: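 Single-concentration test of mappicine analogs at 10 μM final against the RNA-dependent DNA polymerase activity of HIV RT. Value is % residual activity: polymerase activity with analog divided by activity without analog, ×100.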

[2] = biological target: T2, RNase H activity of HIV reverse transcriptase (Human immunodeficiency virus type 1 group M subtype B, UniProt P03366); experiment: Fluorescence (FRET)-based RNase H assay of HIV reverse transcriptase; assay type: biochemical, HIV-1; details: 10 μM inhibitor concentration, activity in presence / in absence of analog x 100
T2 construct: 2.5 nM of the p51/p66 RT heterodimer in the assay; made in house

Row | SMILES | Residual activity (%) Polymerase [1] [%] | Residual activity (%) RNase H [2] [%] | also measured
1 | COc1ccc2nc3c(c([Si](C)(C)C)c2c1)Cn1c-3cc(C(O)C(C)(C)C)c(C)c1=O (centres unmarked) [5 (5Dβ)] | 76 | 102 | 
2 | COc1ccc2nc3c(c([Si](C)(C)C)c2c1)Cn1c-3cc(C(=O)C(C)(C)C)c(C)c1=O [5 (5Dβκ)] | 64 | 86 | 
3 | COc1ccc2nc3c(c([Si](C)(C)C)c2c1)Cn1c-3cc(C(O)CCC2CCCCC2)c(C)c1=O (centres unmarked) [5 (5Dδ)] | 57 | 96 | 
4 | COc1ccc2nc3c(c([Si](C)(C)C)c2c1)Cn1c-3cc(C(=O)CCC2CCCCC2)c(C)c1=O [5 (5Dδκ)] | 40 | 92 | 
5 | COc1ccc2nc3c(c([Si](C)(C)C)c2c1)Cn1c-3cc(C(O)Cc2ccccc2)c(C)c1=O (centres unmarked) [5 (5Dε)] | 48 | 70 | 
6 | CCCCCCc1c2c(nc3ccccc13)-c1cc(C(O)CC)c(C)c(=O)n1C2 (centres unmarked) [5 (8Aα)] | 42 | 83 | 
7 | CCCCCCc1c2c(nc3ccccc13)-c1cc(C(=O)CC)c(C)c(=O)n1C2 [5 (8Aακ)] | 53 | 77 | 
8 | CCCCCCc1c2c(nc3ccccc13)-c1cc(C(O)C(C)(C)C)c(C)c(=O)n1C2 (centres unmarked) [5 (8Aβ)] | 103 | 91 | 
9 | CCCCCCc1c2c(nc3ccccc13)-c1cc(C(=O)C(C)(C)C)c(C)c(=O)n1C2 [5 (8Aβκ)] | 76 | 96 | 
10 | CCCCCCc1c2c(nc3ccccc13)-c1cc(C(O)CCC3CCCCC3)c(C)c(=O)n1C2 (centres unmarked) [5 (8Aδ)] | 72 | 89 | 
11 | CCCCCCc1c2c(nc3ccccc13)-c1cc(C(=O)CCC3CCCCC3)c(C)c(=O)n1C2 [5 (8Aδκ)] | 63 | 97 | 
12 | CCCCCCc1c2c(nc3ccccc13)-c1cc(C(O)Cc3ccccc3)c(C)c(=O)n1C2 (centres unmarked) [5 (8Aε)] | 58 | 71 | 
13 | CCCCCCc1c2c(nc3ccccc13)-c1cc(C(=O)Cc3ccccc3)c(C)c(=O)n1C2 [5 (8Aεκ)] | 59 | 92 | 
14 | CCCCCCc1c2c(nc3ccc(F)cc13)-c1cc(C(O)CC)c(C)c(=O)n1C2 (centres unmarked) [5 (8Bα)] | 57 | 80 | 
15 | CCCCCCc1c2c(nc3ccc(F)cc13)-c1cc(C(=O)CC)c(C)c(=O)n1C2 [5 (8Bακ)] | 64 | 103 | 
16 | CCCCCCc1c2c(nc3ccc(F)cc13)-c1cc(C(O)C(C)(C)C)c(C)c(=O)n1C2 (centres unmarked) [5 (8Bβ)] | 50 | 97 | 
17 | CCCCCCc1c2c(nc3ccc(F)cc13)-c1cc(C(=O)C(C)(C)C)c(C)c(=O)n1C2 [5 (8Bβκ)] | 44 | 81 | 
18 | CCCCCCc1c2c(nc3ccc(F)cc13)-c1cc(C(O)CCC3CCCCC3)c(C)c(=O)n1C2 (centres unmarked) [5 (8Bδ)] | 90 | 112 | 
19 | CCCCCCc1c2c(nc3ccc(F)cc13)-c1cc(C(=O)CCC3CCCCC3)c(C)c(=O)n1C2 [5 (8Bδκ)] | 80 | 95 | 
20 | CCCCCCc1c2c(nc3ccc(F)cc13)-c1cc(C(O)Cc3ccccc3)c(C)c(=O)n1C2 (centres unmarked) [5 (8Bε)] | 92 | 84 | 

Row | SMILES | Residual activity (%) Polymerase [1] [%] | Residual activity (%) RNase H [2] [%] | also measured
21 | CCCCCCc1c2c(nc3ccc(C)cc13)-c1cc(C(O)CC)c(C)c(=O)n1C2 (centres unmarked) [5 (8Cα)] | 84 | 65 | 
22 | CCCCCCc1c2c(nc3ccc(C)cc13)-c1cc(C(=O)CC)c(C)c(=O)n1C2 [5 (8Cακ)] | 31 | 92 | 
23 | CCCCCCc1c2c(nc3ccc(C)cc13)-c1cc(C(O)C(C)(C)C)c(C)c(=O)n1C2 (centres unmarked) [5 (8Cβ)] | 111 | 93 | 
24 | CCCCCCc1c2c(nc3ccc(C)cc13)-c1cc(C(=O)C(C)(C)C)c(C)c(=O)n1C2 [5 (8Cβκ)] | 66 | 95 | 
25 | CCCCCCc1c2c(nc3ccc(C)cc13)-c1cc(C(O)CCC3CCCCC3)c(C)c(=O)n1C2 (centres unmarked) [5 (8Cδ)] | 73 | 72 | 
26 | CCCCCCc1c2c(nc3ccc(C)cc13)-c1cc(C(=O)CCC3CCCCC3)c(C)c(=O)n1C2 [5 (8Cδκ)] | 79 | 95 | 
27 | CCCCCCc1c2c(nc3ccc(C)cc13)-c1cc(C(O)Cc3ccccc3)c(C)c(=O)n1C2 (centres unmarked) [5 (8Cε)] | 76 | 76 | 
28 | CCCCCCc1c2c(nc3ccc(C)cc13)-c1cc(C(=O)Cc3ccccc3)c(C)c(=O)n1C2 [5 (8Cεκ)] | 66 | 86 | 
29 | CCCCCCc1c2c(nc3ccc(OC)cc13)-c1cc(C(O)CC)c(C)c(=O)n1C2 (centres unmarked) [5 (8Dα)] | 85 | 66 | 
30 | CCCCCCc1c2c(nc3ccc(OC)cc13)-c1cc(C(=O)CC)c(C)c(=O)n1C2 [5 (8Dακ)] | 51 | 84 | 
31 | CCCCCCc1c2c(nc3ccc(OC)cc13)-c1cc(C(O)C(C)(C)C)c(C)c(=O)n1C2 (centres unmarked) [5 (8Dβ)] | 68 | 67 | 
32 | CCCCCCc1c2c(nc3ccc(OC)cc13)-c1cc(C(=O)C(C)(C)C)c(C)c(=O)n1C2 [5 (8Dβκ)] | 90 | 88 | 
33 | CCCCCCc1c2c(nc3ccc(OC)cc13)-c1cc(C(O)CCC3CCCCC3)c(C)c(=O)n1C2 (centres unmarked) [5 (8Dδ)] | 81 | 63 | 
34 | CCCCCCc1c2c(nc3ccc(OC)cc13)-c1cc(C(=O)CCC3CCCCC3)c(C)c(=O)n1C2 [5 (8Dδκ)] | 65 | 90 | 
35 | CCCCCCc1c2c(nc3ccc(OC)cc13)-c1cc(C(O)Cc3ccccc3)c(C)c(=O)n1C2 (centres unmarked) [5 (8Dε)] | 73 | 82 | 
36 | Cc1ccc2nc3c(c(-c4ccccc4)c2c1)Cn1c-3cc(C(O)C(C)(C)C)c(C)c1=O (stereo not drawn) [5 (30β)] | 70 | 84 | 
37 | Cc1ccc2nc3c(c(-c4ccccc4)c2c1)Cn1c-3cc(C(O)CCC2CCCCC2)c(C)c1=O (centres unmarked) [5 (30δ)] | 74 | 93 | 
38 | CCC(O)c1cc2n(c(=O)c1C)Cc1c-2nc2ccccc2c1[Si](C)(C)C (centres unmarked) [5 (AG 1M)] |  |  | Residual activity (%) Polymerase ([1]; 10 µM): 89%; Residual activity (%) RNase H ([2]; 10 µM): 73%
39 | CCC(O)c1cc2n(c(=O)c1C)Cc1c-2nc2ccc(N)cc2c1[Si](C)(C)C (centres unmarked) [5 (AG 3M), 2-Amino-7-(1-hydroxypropyl)-8-methyl-12-trimethylsilanyl-1 1H-indolizino[1,2-b]quinolin-9-one] |  |  | remaining activity at 10 µM ([1]; read-out: Residual activity (%) Polymerase): 123%; remaining activity at 10 µM ([2]; read-out: Residual activity (%) RNase H): 63%
40 | CCc1c2c(nc3ccccc13)-c1cc(C(O)CC)c(C)c(=O)n1C2 (centres unmarked) [5 (AG 4M)] | 100 | 74 | 
